According to the supplement of paper PMC11061612:

How the values were obtained:
Test in all cases: combination Emax (second highest fraction inhibited in the dose matrix, 72 h); higher = more inhibition; extreme values may be limits of the assay
GI-1 (Glioblastoma) = tested on: GI-1 (Glioblastoma)
Method in brief: (§1)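 Cell lines grown in DMEM/F12 or RPMI with 10% FBS were plated in 1536-well plates and held 24 hours at 37°C, 5% CO2 before 72 hours of exposure to two-drug dose matrices, with DMSO typically at 0.2%. CellTiter-Glo 2.0 luminescence gave viability, which was converted to inhibition. Vehicle wells were set to 0 and blank wells to 1. Combination Emax is the second-highest inhibition in the matrix, and Bliss excess is the observed combination effect minus the expected EA + EB − EA·EB, where EA and EB are the single-agent effects.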

[1] = tested on: KINGS-1 (Low Grade Glioma)
Method in brief: as §1

[2] = tested on: SCC-9 (Oral Cavity Carcinoma)
Method in brief: as §1

[3] = tested on: HSC-2 (Oral Cavity Carcinoma)
Method in brief: as §1

[4] = tested on: H-EMC-SS (Chondrosarcoma)
Method in brief: as §1

RPMI-7951 (Melanoma) = tested on: RPMI-7951 (Melanoma)
Method in brief: as §1

[5] = tested on: NCI-N87 (Gastric Carcinoma)
Method in brief: as §1

[6] = tested on: PF-382 (T-Lymphoblastic Leukemia)
Method in brief: as §1

[7] = tested on: NCI-H2347 (Lung Adenocarcinoma)
Method in brief: as §1

[8] = tested on: EBC-1 (Squamous Cell Lung Carcinoma)
Method in brief: as §1

NH-12 (Neuroblastoma) = tested on: NH-12 (Neuroblastoma)
Method in brief: as §1

[9] = tested on: SCC-3 (B-Cell Non-Hodgkin's Lymphoma)
Method in brief: as §1

[10] = tested on: ASH-3 (Thyroid Gland Carcinoma)
Method in brief: as §1

[11] = tested on: KP-2 (Pancreatic Carcinoma)
Method in brief: as §1

[12] = tested on: KLE (Endometrial Carcinoma)
Method in brief: as §1

[13] = tested on: SNU-C1 (Colorectal Carcinoma)
Method in brief: as §1

[14] = tested on: KU-19-19 (Bladder Carcinoma)
Method in brief: as §1

BT-20 (Breast Carcinoma) = tested on: BT-20 (Breast Carcinoma)
Method in brief: as §1

A704 (Kidney Carcinoma) = tested on: A704 (Kidney Carcinoma)
Method in brief: as §1

[15] = tested on: BV-173 (Chronic Myelogenous Leukemia)
Method in brief: as §1

| SMILES | combination Emax (GI-1 (Glioblastoma)) | combination Emax [1] | combination Emax [2] | combination Emax [3] | combination Emax [4] | combination Emax (RPMI-7951 (Melanoma)) | combination Emax [5] | combination Emax [6] | combination Emax [7] | combination Emax [8] | combination Emax (NH-12 (Neuroblastoma)) | combination Emax [9] | combination Emax [10] | combination Emax [11] | combination Emax [12] | combination Emax [13] | combination Emax [14] | combination Emax (BT-20 (Breast Carcinoma)) | combination Emax (A704 (Kidney Carcinoma)) | combination Emax [15] |
| --- | --- | --- | --- | --- | --- | --- | --- | --- | --- | --- | --- | --- | --- | --- | --- | --- | --- | --- | --- | --- |
| C=CCn1c(=O)c2cnc(Nc3ccc(N4CCN(C)CC4)cc3)nc2n1-c1cccc(C(C)(C)O)n1 [AZD1775] + C1CN(CCC1(C(=O)N[C@@H](CCO)C2=CC=C(C=C2)Cl)N)C3=NC=NC4=C3C=CN4 [Capivasertib] (first compound max 3 µM, partner max 3 µM) | 0.907 | 0.473 | 0.638 | 0.757 | 0.464 | 0.856 | 0.689 | 0.952 | 0.477 | 0.7 | 0.852 | 0.977 | 0.519 | 0.498 | 0.619 | 0.568 | 0.856 | 0.69 | 0.438 | – |
| C[C@@H](c1ccc2nccn2c1)n1nnc2ncc(-c3cnn(C)c3)nc21 [Savolitinib] + CN(CC[C@H](CSC1=CC=CC=C1)NC2=C(C=C(C=C2)S(=O)(=O)NC(=O)C3=CC=C(C=C3)N4CCC(CC4)[C@H](C5=CC=CC=C5C6=CC=C(C=C6)Cl)O)S(=O)(=O)C(F)(F)F)CCO [AZD4320] (first compound max 1 µM, 7x7, partner max 1 µM) | – | – | – | – | – | 0.271 | – | 0.993 | 0.413 | 1 | 0.824 | 0.0987 | 0.463 | 0.855 | 0.216 | – | 0.194 | 0.418 | 0.449 | 0.954 |
| Cc1c2c(nn1C)CSCc1cc(n(C)n1)CSc1cc(c3ccccc3c1)OCCCc1c(C(=O)O)n(C)c3c-2c(Cl)ccc13 [AZD5991] + C[C@@H]1COCCN1C2=NC(=NC(=C2)C3(CC3)[S@](=N)(=O)C)C4=C5C=CNC5=NC=C4 [AZD6738] (first compound max 1 µM, 7x7, partner max 10 µM) | 0.995 | 0.198 | 0.331 | 0.765 | 0.511 | 0.98 | 0.688 | 0.929 | 0.322 | 0.491 | 0.901 | 0.957 | 0.566 | 0.259 | 0.483 | 0.333 | 0.767 | – | 0.487 | 0.965 |
| COc1nnc2ccc(N3CCC(c4ccc(OCCN5CCN(C)C(=O)[C@H]5C)cc4)CC3)nn12 [AZD5153] + CN(CC[C@H](CSC1=CC=CC=C1)NC2=C(C=C(C=C2)S(=O)(=O)NC(=O)C3=CC=C(C=C3)N4CCC(CC4)[C@H](C5=CC=CC=C5C6=CC=C(C=C6)Cl)O)S(=O)(=O)C(F)(F)F)CCO [AZD4320] (first compound max 1 µM, 7x7, partner max 1 µM) | – | – | – | – | – | 0.647 | – | 1 | 0.518 | 1 | 0.91 | 0.93 | 0.958 | 0.945 | 0.792 | – | 0.755 | 0.293 | 0.768 | 0.957 |
| CC(=O)c1c(C)c2cnc(Nc3ccc(N4CCNCC4)cn3)nc2n(C2CCCC2)c1=O [Palbociclib] + CN(CC[C@H](CSC1=CC=CC=C1)NC2=C(C=C(C=C2)S(=O)(=O)NC(=O)C3=CC=C(C=C3)N4CCC(CC4)[C@H](C5=CC=CC=C5C6=CC=C(C=C6)Cl)O)S(=O)(=O)C(F)(F)F)CCO [AZD4320] (first compound max 10 µM, 7x7, partner max 1 µM) | – | – | – | – | – | 0.678 | – | 1 | 0.458 | 0.875 | 0.988 | 0.392 | 0.692 | 0.743 | 0.355 | – | 0.54 | 0.546 | 0.935 | 0.958 |
| Cc1c2c(nn1C)CSCc1cc(n(C)n1)CSc1cc(c3ccccc3c1)OCCCc1c(C(=O)O)n(C)c3c-2c(Cl)ccc13 [AZD5991] + C=CCn1c(=O)c2cnc(Nc3ccc(N4CCN(C)CC4)cc3)nc2n1-c1cccc(C(C)(C)O)n1 [AZD1775] (first compound max 1 µM, partner max 1 µM) | 0.958 | 0.334 | 0.331 | 0.853 | 0.399 | 0.957 | 0.727 | 0.961 | 0.357 | 0.299 | 0.918 | 0.85 | 0.339 | – | 0.538 | 0.395 | 0.891 | 0.809 | 0.43 | 0.942 |
| CS(=O)(=O)CCNCc1ccc(-c2ccc3ncnc(Nc4ccc(OCc5cccc(F)c5)c(Cl)c4)c3c2)o1 [Lapatinib] + NC1(c2ccc(-c3nc4ccn5c(=O)[nH]nc5c4cc3-c3ccccc3)cc2)CCC1 [MK-2206] (first compound max 10 µM, 7x7, partner max 10 µM) | 0.899 | 0.83 | 0.972 | 0.987 | 0.316 | – | 0.977 | 0.974 | 0.188 | – | – | – | 0.956 | – | – | 0.631 | 0.837 | – | – | – |
